Laboratory results reported in patent US11572590B2, “Methods for evaluating tumor cell spheroids using 3D microfluidic cell culture device” (Dana-Farber Cancer Institute, Inc., priority 2017, dated 2023).

Columns and labels:
B16F10 lung metastases = assay: B16F10 tail vein injection model, lung metastases; format: in vivo, mouse; conditions: Compound 1 40 mg/kg daily for 13 days ± anti-PD-L1 10 mg/kg
Experimental: (§1) Combination studies were performed by vivoPharm (Hummelstown, Pa., USA). All procedures used in the performance of these studies were carried out in accordance with vivoPharm's Standard Operating Procedures, with particular reference to US_SOPvP_EF0314 “General Procedures for Efficacy Studies.” CT26 colon carcinoma cells (1×10^6 cells/mouse in 100 μL, passage 2-3) were re-suspended in serum-free DMEM and implanted in the upper right flank of 11-12 week old female Balb/c mice (Charles River Laboratories). Mice were randomized into four groups of 10 using a matched pair distribution method based on tumor size for CT26. Treatment was initiated 12 days post-inoculation with mean tumor volume at start of dosing of 125.85 mm^3. Vehicle or Compound 1 (40 mg/kg) was administered by oral gavage daily for 26 days and isotype control or a reverse chimera anti-PD-L1 cloned from literature reports (e.g., Deng, R. et al. MAbs (2016), the content of which is incorporated herein by reference in entirety) and placed into a mouse IgG1 framework (10 mg/kg) was administered every 5 days for a total of six doses. Investigators were not blinded to treatment groups. […] Mice were sacrificed on Day 13 and lung metastases were quantified (small ≤1 mm, medium >1 mm and ≤3 mm, large >3 mm). No large lung metastases were detected.

B16F10 MDOTS = assay: Live/dead (AO/PI) imaging of B16F10 MDOTS in 3D microfluidic culture; format: cell-based, murine; conditions: Cmpd1 (1 μM) + αPD-1, 6 days
Experimental: (§2) Fresh tumor specimens (murine and human patients) were received in media (DMEM) on ice and minced in a 10 cm dish (on ice) using sterile forceps and scalpel. Minced tumor was resuspended in DMEM ([…], […] sodium pyruvate, 1:100 penicillin-streptomycin) (Corning CellGro, Manassas, Va.) +10% FBS (Gemini Bio-Products, West Sacramento, Calif.), 100 U/mL collagenase type IV (Life Technologies, Carlsbad, Calif.), and 15 mM HEPES (Life Technologies, Carlsbad, Calif.), except for CT26 tumors that were prepared in RPMI. Samples were pelleted and resuspended in 10-20 mL media. Red blood cells were removed from visibly bloody samples using RBC Lysis Buffer (Boston Bio-Products, Ashland, Mass.). […]
(§3) Dual labeling was performed by loading microfluidic device with Nexcelom ViaStain™ AO/PI Staining Solution (Nexcelom, CS2-0106). Following incubation with the dyes (20 minutes at room temperature in the dark), images were captured on a Nikon Eclipse 80i fluorescence microscope equipped with Z-stack (Prior) and CoolSNAP CCD camera (Roper Scientific). […] Live and dead cell quantitation was performed by measuring total cell area of each dye. […]

CT26 allograft = assay: CT26 allograft, Compound 1 and anti-PD-L1 combination in vivo; parameters: species or system mouse; conditions: Compound 1 40 mg/kg oral gavage daily + anti-PD-L1 10 mg/kg every 5 days
Experimental: as §1

CT26 MDOTS = assay: Live/dead (AO/PI) imaging of CT26 MDOTS in 3D microfluidic culture; format: cell-based, murine; conditions: Cmpd1 (1 μM) + αPD-1, 6 days
Experimental: as §2, §3

MB49 allograft = assay: MB49 allograft, Compound 1 and anti-PD-L1 combination in vivo; parameters: species or system mouse; conditions: Cmpd1 + αPD-L1

N#Cc1cc(-c2ncnc(Nc3ccc(N4CCN(C5COC5)CC4)cc3)n2)ccc1OC1CCOCC1 [Compound 1, 5-(4-((4-(4-(oxetan-3-yl)piperazin-1-yl)phenyl)amino)-1,3,5-triazin-2-yl)-2-((tetrahydro-2H-pyran-4-yl)oxy)benzonitrile]
sensitization of B16F10 tail vein model to PD-L1 blockade (lung metastases) (B16F10 lung metastases): could not be sensitized
sensitization of B16F10 MDOTS to PD-1 blockade (live/dead) (B16F10 MDOTS): could not be sensitized
survival, CT26 allograft, combination vs Cmpd1 or anti-PD-L1 alone (CT26 allograft): longer survival
tumour control, CT26 allograft, combination vs Cmpd1 or anti-PD-L1 alone (CT26 allograft): greater tumour control
killing of CT26 MDOTS, ex vivo combination treatment (CT26 MDOTS): enhanced killing
response to combination treatment in vivo, MB49 bladder carcinoma model (MB49 allograft): enhanced response
